The nature of data set [1]: Inhibition of quorum sensing system in Pseudomonas aeruginosa PAO1 harboring mini-ctx-lasB-lacZ at 10 uM measured after 16 hrs by ONPG test relative to control.
The subject of data set [2] is Pseudomonas aeruginosa. The data set can be described thus: Antibiofilm activity against Pseudomonas aeruginosa PAO1 harboring wspF mutant assessed as inhibition rate at 1.25 uM incubated for 24 hrs by absorbance based assay relative to control. In kind it is functional.
The test system of data set [3] is Pseudomonas aeruginosa. The experiment in a line: Antibiofilm activity against Pseudomonas aeruginosa PAO1 harboring wspF mutant assessed as inhibition rate at 10 uM incubated for 24 hrs by absorbance based assay relative to control. In kind it is functional.
Data set [4] concerns Pseudomonas aeruginosa. The experiment in a line: Antibiofilm activity against Pseudomonas aeruginosa PAO1 harboring wspF mutant incubated for 24 hrs by absorbance based assay. It counts as functional, organism-based.
Data set [5] concerns Pseudomonas aeruginosa. The data set can be described thus: Antibacterial activity against Pseudomonas aeruginosa PAO1 incubated for 24 hrs by absorbance based assay. In kind it is functional.
Data set [6] relates to Pseudomonas aeruginosa. The data set can be described thus: Antivirulence activity against Pseudomonas aeruginosa PAO1 assessed as reduction in elastase level incubated for 24 hrs by elastin-Congo red staining based analysis. To be noted: dose <= 10.0 µM. In kind it is functional, organism-based.
The test system of data set [7] is Pseudomonas aeruginosa. The data set can be described thus: Antivirulence activity against Pseudomonas aeruginosa PAO1 assessed as reduction in rhamnolipid level incubated for 24 hrs by orcinol based analysis. To be noted: dose <= 10.0 µM. In kind it is functional, organism-based.
Data set [8] concerns Pseudomonas aeruginosa. The data set can be described thus: Antivirulence activity against Pseudomonas aeruginosa PAO1 assessed as reduction in pyocyanin level incubated for 24 hrs by absorbance based assay. It counts as functional, organism-based. To be noted: dose <= 10.0 µM.
Data set [9] deals with Pseudomonas aeruginosa. The experiment in a line: Antivirulence activity against Pseudomonas aeruginosa PAO1 assessed as reduction in elastase level at 10 uM incubated for 24 hrs by elastin-Congo red staining based analysis relative to control. More on the design: scale not given: the % may be the effect or the level left. It counts as functional.
For data set [10], the system named is Pseudomonas aeruginosa. The experiment in a line: Antivirulence activity against Pseudomonas aeruginosa PAO1 assessed as reduction in pyocyanin level at 10 uM incubated for 24 hrs by absorbance based assay relative to control. It counts as functional. More on the design: scale not given: the % may be the effect or the level left.
Data set [11] relates to Pseudomonas aeruginosa. The experiment in a line: Antivirulence activity against Pseudomonas aeruginosa PAO1 assessed as reduction in rhamnolipid level at 10 uM incubated for 24 hrs by orcinol based analysis. In kind it is functional, organism-based.
Data set [12] concerns Pseudomonas aeruginosa. The experiment in a line: Antivirulence activity against Pseudomonas aeruginosa PAO1 assessed as reduction in hemolysin level at 10 uM preincubated for 24 hrs followed by addition of erythrocytes measured after 30 mins by absorbance based analysis relative to control. More on the design: scale not given: the % may be the effect or the level left. It counts as functional.

Data set [13] deals with Pseudomonas aeruginosa. The data set can be described thus: Inhibition of beta-galactosidase in Pseudomonas aeruginosa PAO1 harboring mini-ctx-lacZ at 10 uM incubated for 6 hrs by ONPG test relative to control.
Data set [14] has as its system Pseudomonas aeruginosa. The experiment in a line: Inhibition of beta-galactosidase in Pseudomonas aeruginosa PAO1 harboring mini-ctx-lasB-lacZ at 10 uM incubated for 6 hrs by ONPG test relative to control.
Data set [15] has as its system Pseudomonas aeruginosa. The experiment in a line: Inhibition of beta-galactosidase in Pseudomonas aeruginosa PAO1 harboring mini-ctx-pqsA-lacZ at 10 uM incubated for 6 hrs by ONPG test relative to control.
For data set [16], the system named is Pseudomonas aeruginosa. The data set can be described thus: Inhibition of beta-galactosidase in Pseudomonas aeruginosa PAO1 harboring mini-ctx-lasB-lacZ incubated for 6 hrs by ONPG test. To be noted: dose <= 10.0 µM.
In data set [17] the test system is Pseudomonas aeruginosa. The experiment in a line: Inhibition of beta-galactosidase in Pseudomonas aeruginosa PAO1 harboring mini-ctx-pqsA-lacZ incubated for 6 hrs by ONPG test. The settings on record: dose <= 10.0 µM.
Data set [18] relates to Pseudomonas aeruginosa. The experiment in a line: Inhibition of beta-galactosidase in Pseudomonas aeruginosa PAO1 harboring mini-ctx-rhlA-lacZ at 10 uM incubated for 6 hrs by ONPG test relative to control.
For data set [19], the system named is Pseudomonas aeruginosa. The data set can be described thus: Inhibition of swarming motility of Pseudomonas aeruginosa PAO1 incubated overnight. In kind it is functional, organism-based. The settings on record: dose <= 10.0 µM.
Data set [20] relates to Pseudomonas aeruginosa. The data set can be described thus: Inhibition of swimming motility of Pseudomonas aeruginosa PAO1 incubated overnight. The settings on record: dose <= 10.0 µM. It counts as functional, organism-based.
For data set [21], the system named is Pseudomonas aeruginosa. The experiment in a line: Inhibition of twitching motility of Pseudomonas aeruginosa PAO1 incubated overnight by crystal voilet staining based analysis. The settings on record: dose <= 10.0 µM. It counts as functional, organism-based.
In data set [22] the test system is Pseudomonas aeruginosa. The data set can be described thus: Inhibition of swarming motility of Pseudomonas aeruginosa PAO1 at 10 uM incubated overnight. It counts as functional, organism-based.
Data set [23] concerns Pseudomonas aeruginosa. The data set can be described thus: Inhibition of swimming motility of Pseudomonas aeruginosa PAO1 at 10 uM incubated overnight relative to control. In kind it is functional.
For data set [24], the system named is Pseudomonas aeruginosa. The data set can be described thus: Inhibition of twitching motility of Pseudomonas aeruginosa PAO1 at 10 uM incubated overnight by crystal voilet staining based analysis. In kind it is functional, organism-based.
Data set [25] concerns Pseudomonas aeruginosa. The experiment in a line: Downregulation of lasB mRNA level in Pseudomonas aeruginosa PAO1 at 10 uM by RT-qPCR analysis. In kind it is functional, organism-based. Background: Real-time PCR tracks product formation cycle by cycle.
For data set [26], the system named is Pseudomonas aeruginosa. The experiment in a line: Downregulation of rhlA mRNA level in Pseudomonas aeruginosa PAO1 at 10 uM by RT-qPCR analysis. In kind it is functional, organism-based.
The subject of data set [27] is Pseudomonas aeruginosa. The data set can be described thus: Downregulation of rhlR mRNA level in Pseudomonas aeruginosa PAO1 at 10 uM by RT-qPCR analysis. In kind it is functional, organism-based.
Data set [28] concerns Pseudomonas aeruginosa. The data set can be described thus: Downregulation of lasR mRNA level in Pseudomonas aeruginosa PAO1 at 10 uM by RT-qPCR analysis. It counts as functional, organism-based.
Data set [29] has as its system Pseudomonas aeruginosa. The data set can be described thus: Downregulation of pqsR mRNA level in Pseudomonas aeruginosa PAO1 at 10 uM by RT-qPCR analysis. In kind it is functional, organism-based.
Data set [30] concerns Pseudomonas aeruginosa. The data set can be described thus: Downregulation of pelA mRNA level in Pseudomonas aeruginosa PAO1 at 10 uM by RT-qPCR analysis. In kind it is functional, organism-based.
The subject of data set [31] is DNA. The data set can be described thus: Binding affinity to pBR322 DNA (unknown origin) assessed as DNA embedding toxicity at 50 uM preincubated for 10 mins followed by Topo I addition measured after 1 hr by TO dye based PAGE analysis. In kind it is nucleic-acid assay. The settings on record: time 70.0 min.
Data set [32] relates to DNA. The data set can be described thus: Binding affinity to pBR322 DNA (unknown origin) assessed as DNA migration at 50 uM preincubated for 10 mins followed by Topo I addition measured after 1 hr by TO dye based PAGE analysis. The settings on record: time 70.0 min. It counts as nucleic-acid assay.
The nature of data set [33]: Hemolytic activity in rabbit erythrocytes assessed as damage in cell membrane integrity at 100 uM incubated for 4 hrs by absorbance based assay. In kind it is toxicity, Oryctolagus cuniculus. The settings on record: erythrocyte.
The next data set relates to Vero. The experiment in a line: Cytotoxicity against African green monkey Vero cells at 12.5 uM incubated for 24 hrs by MTT assay. It counts as toxicity, cell-based. The settings on record: chlorocebus sabaeus. In general terms: Tetrazolium dyes change colour on reduction, which living cells bring about.
Data set [34] concerns Pseudomonas aeruginosa. The data set can be described thus: Synergistic antibacterial activity against Pseudomonas aeruginosa PAO1 assessed as bacterial growth inhibition at 20 uM incubated for 24 hrs in presence of tetracycline by CFU counting method. It counts as functional, organism-based.
A short description of data set [35]: Toxicity in Caenorhabditis elegans assessed as nematode survival upto 100 uM incubated for 96 hrs.
Data set [36] in a line: Toxicity in Caenorhabditis elegans infected with Pseudomonas aeruginosa PAO1 assessed as nematode survival at 10 uM incubated for 48 hrs.
Data set [37] in a line: Toxicity in Caenorhabditis elegans infected with Pseudomonas aeruginosa PAO1 assessed as nematode survival at 10 uM incubated for 48 hrs in presence of tetracycline.
A short description of data set [38]: Toxicity in Caenorhabditis elegans infected with Pseudomonas aeruginosa PAO1 assessed as reduction in nematode mortality rate at 10 uM incubated for 48 hrs in presence of TOB. More on the design: scale not given: the % may be the effect or the level left.
Data set [39] can be described thus: Toxicity in Caenorhabditis elegans infected with hyper-biofilm phenotype Pseudomonas aeruginosa PAO1 harboring wspF mutant assessed as nematode death at 10 uM incubated for 48 hrs in presence of TOB.
The nature of data set [40]: Toxicity in Caenorhabditis elegans infected with hyper-biofilm phenotype Pseudomonas aeruginosa PAO1 harboring wspF mutant assessed as nematode death at 10 uM incubated for 48 hrs in presence of tetracycline.
Data set [41] relates to Pseudomonas aeruginosa. The data set can be described thus: Synergistic inhibition of bacterial virulence of Pseudomonas aeruginosa PAO1 infected in Caenorhabditis elegans upto 10 uM incubated for 36 hrs in presence of tetracycline. In kind it is functional, organism-based.
Data set [42] has as its system Pseudomonas aeruginosa. The data set can be described thus: Synergistic inhibition of bacterial virulence of Pseudomonas aeruginosa PAO1 infected in Caenorhabditis elegans upto 10 uM incubated for 36 hrs in presence of TOB. It counts as functional, organism-based.
For data set [43], the system named is Pseudomonas aeruginosa. The experiment in a line: Synergistic inhibition of bacterial virulence of hyper-biofilm phenotype Pseudomonas aeruginosa PAO1 harboring wspF mutant upto 10 uM incubated for 36 hrs in presence of tetracycline. It counts as functional, organism-based.
Data set [44] has as its system Pseudomonas aeruginosa. The data set can be described thus: Synergistic inhibition of bacterial virulence of hyper-biofilm phenotype Pseudomonas aeruginosa PAO1 harboring wspF mutant upto 10 uM incubated for 36 hrs in presence of TOB. In kind it is functional, organism-based.
Data set [45] is described as follows: Toxicity in Caenorhabditis elegans infected with Pseudomonas aeruginosa PAO1 assessed as nematode survival at 2 ug incubated for 48 hrs. To be noted: in vivo, at 2 µg.

Calls of active or inactive are those of the source. The rule behind the calls is not given here. A value given as a limit tells only on which side of the number the result lay.

The results in this text go back to ChEMBL document CHEMBL6078637, “Cyclic Diguanylate G-Quadruplex Inducer-Quorum Sensing Inhibitor Hybrids as Bifunctional Anti-biofilm and Anti-virulence Agents Against Pseudomonas aeruginosa” (J Med Chem, 2024).

As to `C[n+]1c(/C=C/c2c[nH]c3ccccc23)ccc2ccccc21.[I-]`, the inhibition (commonly how much of the control response was suppressed) in data set [1] was 44.5%; with Pseudomonas aeruginosa [4], “Dose-dependent-effect”; in the data set on Pseudomonas aeruginosa [13], 20.4%; in the data set on Pseudomonas aeruginosa [14], 30%; in the data set with Pseudomonas aeruginosa [15], 30%; in the data set on Pseudomonas aeruginosa [16], “Dose-dependent-effect”. The inhibition entry is “Dose-dependent-effect” in the data set on Pseudomonas aeruginosa [17]; 10% with Pseudomonas aeruginosa [18]; “Dose-dependent-effect” in the data set with Pseudomonas aeruginosa [19]; “Dose-dependent-effect” in the data set on Pseudomonas aeruginosa [20]; “Dose-dependent-effect” with Pseudomonas aeruginosa [21]; “Active; Inhibitory Effect Was Comparable To Qs Deficient Pao1 Double Mutant Lasi/Rhli” in the data set on Pseudomonas aeruginosa [22]. In addition, in the data set with Pseudomonas aeruginosa [24], the inhibition result is given as “Active; Exhibited Only A Modest Impact”. Also, the inhibition at 1.25 µM in the data set with Pseudomonas aeruginosa [2] is about 21%. For the same compound, the inhibition at 10 µM was about 40% with Pseudomonas aeruginosa [3] and 29.2% in the data set with Pseudomonas aeruginosa [23]. In addition, the IC50 (in general, the point on the concentration scale where inhibition reaches its midpoint) with Pseudomonas aeruginosa [4] (PAO1, 24 h) is 14.9 µM. In addition, in the data set on Pseudomonas aeruginosa [5], the MIC (in general, the lowest concentration found to suppress growth) is over 128 µM. In addition, the Activity result in the data set with Pseudomonas aeruginosa [6] is “Dose-dependent-effect”; with Pseudomonas aeruginosa [7], “Dose-dependent-effect”; in the data set on Pseudomonas aeruginosa [8], “Dose-dependent-effect”; with Pseudomonas aeruginosa [9] it was 59.02%; with Pseudomonas aeruginosa [10] it was about 40%; with Pseudomonas aeruginosa [11], “Active; Exhibited Relatively Modest Activity”. For the same compound, the Activity in the data set on Pseudomonas aeruginosa [12] is 62.38%; in the data set with DNA [31] it was “Not toxic”; in the data set with DNA [32], “Not toxic”; in data set [33], “Non-toxic”; with Vero, “Non-toxic”; in data set [35], “Non-toxic”. Further, the Activity entry in data set [36] is given as “Toxic”; in data set [38] it was ~ 50%; in data set [39], “Non-toxic”; in [40] it was “Non-toxic”. The result in the data set on Pseudomonas aeruginosa [25], in the data set on Pseudomonas aeruginosa [26], with Pseudomonas aeruginosa [27], in the data set on Pseudomonas aeruginosa [28], in the data set with Pseudomonas aeruginosa [29] and in the data set on Pseudomonas aeruginosa [30] was Active. Besides, the outcome with Pseudomonas aeruginosa [34], with Pseudomonas aeruginosa [41], with Pseudomonas aeruginosa [42], with Pseudomonas aeruginosa [43] and in the data set with Pseudomonas aeruginosa [44] was Active. Further, the Survival in data set [37] was determined as 95%.
In the data set with Pseudomonas aeruginosa [5], `CN(C)[C@@H]1C(O)=C(C(N)=O)C(=O)[C@@]2(O)C(O)=C3C(=O)c4c(O)cccc4[C@@](C)(O)[C@H]3C[C@@H]12` [TETRACYCLINE] displayed an MIC of over 128 µM. In data set [45], the Survival is reported as ~ 10%.
